Values after ≈ are worked out from the molar mass of the structure shown.
Test system: Mtb Y314C mutant strain
Type: cell-based, Mycobacterium tuberculosis

Row | Structure (SMILES) | MIC Y314C [µM]
1 | CCOC(=O)NC(=O)c1ccsc1NC(=O)c1nc2ccccc2s1 [TCA1] | 5.4 ± 0.32 (≈ 2.03 µg/mL)
2 | CCOC(=O)NC(=O)c1ccsc1NC(=O)c1nc2cnccc2s1 [TCA007] | 2.4 ± 0.34 (≈ 0.903 µg/mL)
3 | O=C(Nc1sccc1C(=O)Nc1ncccn1)c1nc2cnccc2s1 [TCA020] | 17 ± 1.1 (≈ 6.5 µg/mL)
4 | CCOC(=O)NC(=O)c1cc(F)sc1NC(=O)c1nc2ccccc2s1 [TCA481] | 1.4 ± 0.086 (≈ 0.551 µg/mL)
5 | Cc1ccnc(NC(=O)c2ccsc2NC(=O)c2nc3cnccc3s2)n1 [TCA787] | 14 ± 1.4 (≈ 5.55 µg/mL)

— paper PMC5659129, “Determinants of the Inhibition of DprE1 and CYP2C9 by Antitubercular Thiophenes” (Angewandte Chemie (International Ed. in English), 2017)
